These results are taken from patent US10723741B1, “DNA polymerase IIIC inhibitors and use thereof” (Acurx Pharmaceuticals, LLC, priority 2018, dated 2020).

Type in all cases: cell-based
Test [1] deals with Enterococcus faecalis ATCC 29212. Put plainly: Broth microdilution MIC, E. faecalis ATCC 29212. The following applies: ATCC29212, broth microdilution, 37° C., 20 hours, read-out: MIC E. faecalis ATCC 29212. In short, it runs like this:
(§1)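 Two-fold dilutions from 64 to 0.0625 μg/ml final, 1% DMSO, were inoculated at ~5.0×10^5 cfu/ml in the strain's test medium and kept 20 h at 37 °C in ambient atmosphere. Colonies were grown on MHA, with S. pneumoniae on blood agar under 5% CO2.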

Test [2] deals with Streptococcus pneumoniae ATCC 49619. Put plainly: Broth microdilution MIC, S. pneumoniae ATCC 49619. To be noted: ATCC49619, broth microdilution, 37° C., 20 hours, read-out: MIC S. pneumoniae ATCC 49619. The gist of the method: as §1
For test [3], the system named is Enterococcus faecium ATCC 700221 (VRE). The experiment in a line: Broth microdilution MIC, E. faecium ATCC 700221 (VRE). The following applies: Enterococcus faecium; broth microdilution, 37° C., 20 hours; read-out: MIC E. faecium ATCC 700221 (VRE). In short, it runs like this: as §1
Test [4] relates to Bacillus subtilis ATCC 6633. The experiment in a line: Broth microdilution MIC, B. subtilis ATCC 6633. The following applies: ATCC6633, broth microdilution, 37° C., 20 hours, read-out: MIC B. subtilis ATCC 6633. The gist of the method: as §1
Test [5] relates to Staphylococcus aureus NRS384 (MRSA). The experiment in a line: Broth microdilution MIC, S. aureus NRS384 (MRSA). To be noted: Staphylococcus aureus; broth microdilution, 37° C., 20 hours; read-out: MIC NRS 384 (MRSA). In short, it runs like this:
as §1

Test [6] concerns Escherichia coli ATCC 25922. The experiment in a line: Broth microdilution MIC, E. coli ATCC 25922 (MHIIB w & w/o 4 mM EDTA). To be noted: broth microdilution, 37° C., 20 hours; for MIC: Escherichia coli, ATCC25922, without EDTA, read-out: MIC E. coli ATCC 25922; for MIC E. coli ATCC 25922 + 4 mM EDTA: with 4 mM EDTA. In short, it runs like this:
as §1

In test [7] the test system is Staphylococcus aureus ATCC 29213 (MSSA). The experiment in a line: Broth microdilution MIC, S. aureus ATCC 29213 (MSSA). To be noted: broth microdilution, 37° C., 20 hours, read-out: MIC S. aureus ATCC 29213 (MSSA). The gist of the method:
as §1

SMILES strings stand for the structures. Converted amounts (≈) assume the structure as drawn.

For the compound `Cl.O=c1[nH]c(NCc2ccc(Cl)c(Cl)c2)nc2cnn(CCN3CC(O)C3)c12` [Compound 70, 5-((3,4-Dichlorobenzyl)amino)-1-(2-(3-hydroxyazetidin-1-yl)ethyl)-1H-pyrazolo[4,3-d]pyrimidin-7(6H)-one hydrochloride], the MIC in test [1] is 64 µg/mL; in test [2], 8 µg/mL; in test [3], greater than 64 µg/mL; in test [4], 16 µg/mL; in test [5], 64 µg/mL; in test [6], greater than 64 µg/mL. Also, in test [7], the MIC was greater than 64 µg/mL. Further, the “MIC E. coli ATCC 25922 + 4 mM EDTA” value in test [6] was 64 µg/mL.

Consider `Cl.Cl.O=c1[nH]c(NCc2ccc(Cl)c(Cl)c2)nc2cnn(CCN3CCN(CCO)CC3)c12` [Compound 71, 5-((3,4-Dichlorobenzyl)amino)-1-(2-(4-(2-hydroxyethyl)piperazin-1-yl)ethyl)-1H-pyrazolo[4,3-d]pyrimidin-7(6H)-one dihydrochloride], for which the MIC in test [1] was 32 µg/mL; in test [2], 4 µg/mL; in test [3] it was 16 µg/mL; in test [4], 4 µg/mL; in test [5], 64 µg/mL; in test [6], greater than 64 µg/mL. Moreover, the MIC in test [7] was determined as 32 µg/mL. The “MIC E. coli ATCC 25922 + 4 mM EDTA” value in test [6] was greater than 64 µg/mL.

Regarding `CN(C)C(=O)C1CN(CCn2ncc3nc(NCc4ccc(Cl)c(Cl)c4)[nH]c(=O)c32)CCO1.Cl` (stereo not shown) [Compound 72, 4-(2-(5-((3,4-Dichlorobenzyl)amino)-7-oxo-6,7-dihydro-1H-pyrazolo[4,3-d]pyrimidin-1-yl)ethyl)-N,N-dimethylmorpholine-2-carboxamide hydrochloride], the MIC was 8 µg/mL in test [1]; 8 µg/mL in test [2]; 8 µg/mL in test [3]; 4 µg/mL in test [4]; 16 µg/mL in test [5]; greater than 64 µg/mL in test [6]. Besides, the MIC in test [7] amounted to 16 µg/mL. Besides, the “MIC E. coli ATCC 25922 + 4 mM EDTA” value in test [6] is greater than 64 µg/mL.

As for `CN(C)CC1CN(CCn2ncc3nc(NCc4ccc(Cl)c(Cl)c4)[nH]c(=O)c32)CCO1.Cl.Cl` (stereo not shown) [Compound 73, 5-((3,4-Dichlorobenzyl)amino)-1-(2-(2-((dimethylamino)methyl)morpholino)ethyl)-1H-pyrazolo[4,3-d]pyrimidin-7(6H)-one dihydrochloride], the MIC is 16 µg/mL in test [1]; 8 µg/mL in test [2]; 8 µg/mL in test [3]; 4 µg/mL in test [4]; 16 µg/mL in test [5]; greater than 64 µg/mL in test [6]. The MIC in test [7] stood at 16 µg/mL. In test [6], the “MIC E. coli ATCC 25922 + 4 mM EDTA” value is greater than 64 µg/mL.

On to `O=c1[nH]c(NCc2ccc(Cl)c(Cl)c2)nc2cnn(CCN3CCNCC3)c12` [Compound 74, 5-((3,4-dichlorobenzyl)amino)-1-(2-(piperazin-1-yl)ethyl)-1H-pyrazolo[4,3-d]pyrimidin-7(6H)-one], for which the MIC in test [1] was 64 µg/mL (≈ 152 µM); in test [2] it was 16 µg/mL (≈ 37.9 µM); in test [3] it was 16 µg/mL (≈ 37.9 µM); in test [4] it was 8 µg/mL (≈ 18.9 µM); in test [5], 64 µg/mL (≈ 152 µM); in test [6] it was greater than 64 µg/mL. Further, in test [7], the MIC was 32 µg/mL (≈ 75.8 µM). Further, in test [6], the “MIC E. coli ATCC 25922 + 4 mM EDTA” value was greater than 64 µg/mL.

In the case of `O=c1[nH]c(NCc2ccc(Cl)c(Cl)c2)nc2cnn(CC(O)CO)c12` (stereo not shown) [Compound 75, 5-((3,4-dichlorobenzyl)amino)-1-(2,3-dihydroxypropyl)-1H-pyrazolo[4,3-d]pyrimidin-7(6H)-one], the MIC was 16 µg/mL (≈ 41.6 µM) in test [1]; 4 µg/mL (≈ 10.4 µM) in test [2]; 8 µg/mL (≈ 20.8 µM) in test [3]; 8 µg/mL (≈ 20.8 µM) in test [4]; 16 µg/mL (≈ 41.6 µM) in test [5]; greater than 64 µg/mL in test [6]. The MIC in test [7] was 16 µg/mL (≈ 41.6 µM). The “MIC E. coli ATCC 25922 + 4 mM EDTA” value in test [6] is greater than 64 µg/mL.

Consider `O=c1[nH]c(NCc2ccc(Cl)c(Cl)c2)nc2cnn(CCO)c12` [Compound 76, 5-((3,4-dichlorobenzyl)amino)-1-(2-hydroxyethyl)-1H-pyrazolo[4,3-d]pyrimidin-7(6H)-one], for which the MIC in test [1] was 4 µg/mL (≈ 11.3 µM); in test [2], 4 µg/mL (≈ 11.3 µM); in test [3] it was 2 µg/mL (≈ 5.65 µM); in test [4], 2 µg/mL (≈ 5.65 µM); in test [5], 4 µg/mL (≈ 11.3 µM); in test [6], greater than 64 µg/mL. The MIC in test [7] amounted to 4 µg/mL (≈ 11.3 µM). Further, the “MIC E. coli ATCC 25922 + 4 mM EDTA” value in test [6] was greater than 64 µg/mL.

As for `O=c1[nH]c(NCc2ccc(Cl)c(Cl)c2)nc2cnn(CCNCCn3ncc4nc(NCc5ccc(Cl)c(Cl)c5)[nH]c(=O)c43)c12` [Compound 78], the MIC in test [1] was 8 µg/mL (≈ 11.6 µM); in test [2], 32 µg/mL (≈ 46.4 µM); in test [3], 2 µg/mL (≈ 2.9 µM); in test [4], 4 µg/mL (≈ 5.8 µM); in test [5], 32 µg/mL (≈ 46.4 µM); in test [6] it was greater than 64 µg/mL. Further, the MIC in test [7] was determined as 64 µg/mL (≈ 92.8 µM). Moreover, in test [6], the “MIC E. coli ATCC 25922 + 4 mM EDTA” value is greater than 64 µg/mL.

Consider `Cc1noc(C)c1C(=O)NCCn1ncc2nc(NCc3ccc(Cl)c(Cl)c3)[nH]c(=O)c21` [Compound 79, N-(2-(5-((3,4-dichlorobenzyl)amino)-7-oxo-6,7-dihydro-1H-pyrazolo[4,3-d]pyrimidin-1-yl)ethyl)-3,5-dimethylisoxazole-4-carboxamide], for which the MIC in test [1] is 16 µg/mL (≈ 33.6 µM); in test [2] it was 8 µg/mL (≈ 16.8 µM); in test [3] it was 8 µg/mL (≈ 16.8 µM); in test [4], 16 µg/mL (≈ 33.6 µM); in test [5], 32 µg/mL (≈ 67.2 µM); in test [6], greater than 64 µg/mL. In test [7], the MIC was 16 µg/mL (≈ 33.6 µM). Further, the “MIC E. coli ATCC 25922 + 4 mM EDTA” value in test [6] was greater than 64 µg/mL.

As to `Cc1noc(C)c1C(=O)N(C)CCn1ncc2nc(NCc3ccc(Cl)c(Cl)c3)[nH]c(=O)c21` [Compound 80, N-(2-(5-((3,4-dichlorobenzyl)amino)-7-oxo-6,7-dihydro-1H-pyrazolo[4,3-d]pyrimidin-1-yl)ethyl)-N,3,5-trimethylisoxazole-4-carboxamide], the MIC in test [1] is 32 µg/mL (≈ 65.3 µM); in test [2], 8 µg/mL (≈ 16.3 µM); in test [3], 16 µg/mL (≈ 32.6 µM); in test [4], 16 µg/mL (≈ 32.6 µM); in test [5], 32 µg/mL (≈ 65.3 µM); in test [6], greater than 64 µg/mL. Besides, the MIC in test [7] was 32 µg/mL (≈ 65.3 µM). Besides, the “MIC E. coli ATCC 25922 + 4 mM EDTA” value in test [6] came out at 64 µg/mL.

Consider `CN(CCn1ncc2nc(NCc3ccc(Cl)c(Cl)c3)[nH]c(=O)c21)C(=O)c1cc(Cl)nnc1O` [Compound 81, 6-Chloro-N-(2-(5-((3,4-dichlorobenzyl)amino)-7-oxo-6,7-dihydro-1H-pyrazolo[4,3-d]pyrimidin-1-yl)ethyl)-3-hydroxy-N-methylpyridazine-4-carboxamide], for which the MIC is 32 µg/mL (≈ 61.1 µM) in test [1]; 8 µg/mL (≈ 15.3 µM) in test [2]; 32 µg/mL (≈ 61.1 µM) in test [3]; 64 µg/mL (≈ 122 µM) in test [4]; 64 µg/mL (≈ 122 µM) in test [5]; greater than 64 µg/mL in test [6]. In test [7], the MIC is 64 µg/mL (≈ 122 µM). For the same compound, in test [6], the “MIC E. coli ATCC 25922 + 4 mM EDTA” value stood at 64 µg/mL.

For `CN(CCn1ncc2nc(NCc3ccc(Cl)c(Cl)c3)[nH]c(=O)c21)C(=O)c1cnoc1` [Compound 82, N-(2-(5-((3,4-dichlorobenzyl)amino)-7-oxo-6,7-dihydro-1H-pyrazolo[4,3-d]pyrimidin-1-yl)ethyl)-N-methylisoxazole-4-carboxamide], the MIC is 8 µg/mL (≈ 17.3 µM) in test [1]; 8 µg/mL (≈ 17.3 µM) in test [2]; 4 µg/mL (≈ 8.65 µM) in test [3]; 8 µg/mL (≈ 17.3 µM) in test [4]; 16 µg/mL (≈ 34.6 µM) in test [5]; greater than 64 µg/mL in test [6]. Also, the MIC in test [7] came out at 16 µg/mL (≈ 34.6 µM). Moreover, the “MIC E. coli ATCC 25922 + 4 mM EDTA” value in test [6] was greater than 64 µg/mL.

Take `O=C(NCCn1ncc2nc(NCc3ccc(Cl)c(Cl)c3)[nH]c(=O)c21)c1cc(Cl)nnc1O` [Compound 83, 6-chloro-N-(2-(5-((3,4-dichlorobenzyl)amino)-7-oxo-6,7-dihydro-1H-pyrazolo[4,3-d]pyrimidin-1-yl)ethyl)-3-hydroxypyridazine-4-carboxamide]: the MIC was greater than 64 µg/mL in test [1]; 8 µg/mL (≈ 15.7 µM) in test [2]; greater than 64 µg/mL in test [3]; 64 µg/mL (≈ 126 µM) in test [4]; greater than 64 µg/mL in test [5]; greater than 64 µg/mL in test [6]. In test [7], the MIC was greater than 64 µg/mL. Besides, the “MIC E. coli ATCC 25922 + 4 mM EDTA” value in test [6] was greater than 64 µg/mL.

Turning to `O=C(NCCn1ncc2nc(NCc3ccc(Cl)c(Cl)c3)[nH]c(=O)c21)c1cc(O)nnc1Cl` [Compound 84, 3-chloro-N-(2-(5-((3,4-dichlorobenzyl)amino)-7-oxo-6,7-dihydro-1H-pyrazolo[4,3-d]pyrimidin-1-yl)ethyl)-6-hydroxypyridazine-4-carboxamide], the MIC in test [1] was 64 µg/mL (≈ 126 µM); in test [2], 16 µg/mL (≈ 31.4 µM); in test [3], 32 µg/mL (≈ 62.8 µM); in test [4], 64 µg/mL (≈ 126 µM); in test [5], 64 µg/mL (≈ 126 µM); in test [6] it was greater than 64 µg/mL. In test [7], the MIC stood at 64 µg/mL (≈ 126 µM). Further, the “MIC E. coli ATCC 25922 + 4 mM EDTA” value in test [6] is greater than 64 µg/mL.
